Experimental data reported in US20240190872A1, “FABI INHIBITORS FOR GRAM-NEGATIVE PATHOGENS” (THE BOARD OF TRUSTEES OF THE UNIVERSITY OF ILLINOIS, priority 2021, published 2024).
≈ marks a conversion by molar mass, not a printed value.

Experiments:
[1] = tested on: IMR90; assay: Toxicity screen against mammalian cell lines (72 h), Alamar Blue; type: cell-based
Experimental: Cell culture. IMR90 cells were obtained from ATCC. IMR90 cells were grown in EMEM with 10% fetal bovine serum (Gemini Benchmark, Cat# 100-106), 100 U/mL penicillin, and 100 μg/mL streptomycin. All cells were cultured at 37° C. in a 5% CO2 environment. Media was prepared by the Univeristy of Illinois School of Chemical Sciences Cell Media Facility. Sex and age of cell lines: IMR90 ([…]).
Cell viability. Cells seeded (IMR90: 5,000 cells/well) a 96-well plate (Greiner Bio-One, Cat# 655180) and were allowed to attach overnight. […] Raptinal (100 μM) was used as a dead control. After 24 h post-treatment, media was exchanged with compound-free media. […] Stock Alamar Blue solution [10 μL, 440 μM resazurin (Sigma-Aldrich, Cat# R7017) in sterile 1×PBS] was added to each well, and plate was incubated […]. Conversion of Alamar Blue was measured with plate reader (SpectraMax M3, Molecular Devices) by fluorescence (ex 555 nm, em 585 nm, cutoff 570 nm, autogain). Percent death was determined by normalizing to DMSO-treated cells and raptinal-treated cells.

[2] = tested on: Hep G2; assay: Toxicity screen against mammalian cell lines (72 h); type: cell-based
[3] = tested on: S. aureus ATCC 29213; assay: Antimicrobial susceptibility test (MIC), micro-dilution broth; type: cell-based; conditions: S. aureus ATCC 29213
Excerpt: (§1) Bacterial strains. S. aureus ATCC 29213, E. coli MG1655, E. coli BAA-2340, E. coli BAA-2469, E. coli BAA-2471, E. cloacae BAA-2341, E. cloacae BAA-2468, K. pneumoniae BAA-1705, K. pneumoniae BAA-2342, K. pneumoniae BAA-2470, K. pneumoniae BAA-2472, and K. pneumoniae BAA-2473 were obtained from ATCC. E. coli JW5503 and E. coli JW3596 were obtained from the KEIO Collection. E. cloacae ATCC 29893 was provided by W. van der Donk (UIUC). E. coli AR-0346, E. coli AR-0349, E. coli AR-0493, E. coli AR-0495, and K. pneumoniae AR-0347 were obtained from the CDC and FDA AR Isolate Bank. E. coli F20987, E. coli M66623, E. cloacae S28901.1, K. pneumoniae M14723, K. pneumoniae M67198, K. pneumoniae M67297, K. pneumoniae S20595, K. pneumoniae S47889, A. baumannii W41979, A. baumannii F19521, A. baumannii M13100, and A. baumannii WO22 were obtained from the University of Illinois Chicago Medical School. A. baumannii KB304, A. baumannii KB343, and A. baumannii KB357 were provided by J. Quale.
(§2) Antimicrobial susceptibility tests. Susceptibility testing was performed in biological triplicate, using the micro-dilution broth method as outlined by the Clinical and Laboratory Standards Institute. Bacteria were cultured with cation-adjusted Muller-Hinton broth (Sigma-Aldrich, Cat# 90922) in round-bottom 96-well plates (Corning, Cat# 3788). Human serum (pooled gender, 0.2 μm filtered) was purchased from BioIVT (Hicksville, NY).

[4] = tested on: E. coli ΔtolC (JW5503); type: cell-based; conditions: efflux deficient E. coli ΔtolC
Experimental: (§3) The compounds synthesized, shown in Table 1, were evaluated against Gram-positive and Gram-negative reference strains (S. aureus 29213 and E. coli MG1655, respectively), as well as an efflux deficient E. coli strain (ΔtolC, JW5503).
as §1, §2

[5] = tested on: E. coli MG1655; assay: Antimicrobial susceptibility test (MIC); type: cell-based
Excerpt: as §1, §2

[6] = tested on: K. pneumoniae BAA 2472; assay: microbe, parasite or virus in culture; type: cell-based; conditions: for MIC K. pneumoniae BAA 2472: clinical isolate
Experimental: as §3, §1, §2

[7] = tested on: A. baumannii AR 0033; assay: microbe, parasite or virus in culture; type: cell-based; conditions: for MIC A. baumannii AR 0033: clinical isolate
Experimental: as §2

[8] = tested on: A. baumannii AR 0273; assay: microbe, parasite or virus in culture; type: cell-based; conditions: for MIC A. baumannii AR 0273: clinical isolate
Experimental: as §2

[9] = tested on: A. baumannii AR 0299; assay: microbe, parasite or virus in culture; type: cell-based; conditions: for MIC A. baumannii AR 0299: clinical isolate
Experimental: as §2

[10] = tested on: A. baumannii AR 0313; assay: microbe, parasite or virus in culture; type: cell-based; conditions: for MIC A. baumannii AR 0313: clinical isolate
Experimental: as §2

[11] = tested on: E. coli AR 0048; assay: microbe, parasite or virus in culture; type: cell-based; conditions: for MIC E. coli AR 0048: clinical isolate
Experimental: as §2

[12] = tested on: E. coli AR 0085; assay: microbe, parasite or virus in culture; type: cell-based; conditions: for MIC E. coli AR 0085: clinical isolate
Experimental: as §2

[13] = tested on: K. pneumoniae AR 0066; assay: microbe, parasite or virus in culture; type: cell-based; conditions: for MIC K. pneumoniae AR 0066: clinical isolate
Experimental: as §2

[14] = tested on: K. pneumoniae AR 0113; assay: microbe, parasite or virus in culture; type: cell-based; conditions: for MIC K. pneumoniae AR 0113: clinical isolate
Experimental: as §2

[15] = tested on: K. pneumoniae AR 0560; assay: microbe, parasite or virus in culture; type: cell-based; conditions: for MIC K. pneumoniae AR 0560: clinical isolate
Experimental: as §2

[16] = Maximal tolerated dose (MTD) in mice
Experimental: Mouse MTD of Debio-1452-NH3. The protocol was approved by the IACUC at the University of Illinois at Urbana-Champaign (Protocol Number:16144). In these studies, 10- to 12-week-old female C57BL/6 mice purchased from Charles River were used. The maximum tolerate dose (MTD) of single compound was determined first. Debio-1452 amine analogues were formulated in 20% sulfobutyl ether β-cyclodextrin in sterile water. Debio-1452-NH3 (1), and compounds 2 and 3 were given by IP injection and mice were monitored for signs of toxicity for 2 weeks (single dose). For multiple dose, the compound was given by daily IP for 5 consecutive days and mice were monitored for signs of toxicity for 1 month. MTD was the highest dosage with acceptable toxicity (e.g. <20% weight loss). Single dose MTDs were initially determined. […] The MTD of Debio-1452-NH3 (1) was used to inform the dosing schedule used in subsequent efficacy studies.

[17] = target: A. baumannii FabI (Acinetobacter baumannii, UniProt D0CAD5); assay: biochemical; conditions: purified FabI, apparent inhibition constant; read-out: A. baumannii FabI Ki^app
Sequence of A. baumannii FabI (D0CAD5 1-288): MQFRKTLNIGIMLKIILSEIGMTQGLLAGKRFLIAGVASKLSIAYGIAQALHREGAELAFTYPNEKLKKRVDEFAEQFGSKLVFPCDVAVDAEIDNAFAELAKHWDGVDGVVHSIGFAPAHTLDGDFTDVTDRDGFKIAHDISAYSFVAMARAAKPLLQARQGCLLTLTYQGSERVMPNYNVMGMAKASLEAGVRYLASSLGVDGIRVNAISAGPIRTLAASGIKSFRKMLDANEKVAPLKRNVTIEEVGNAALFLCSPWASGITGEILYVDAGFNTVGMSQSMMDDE
Experimental: Mode of Action. To probe the effects of varying ring systems and amine placement on FabI target engagement, the apparent inhibition constants (Ki^app) for select compounds were determined using purified FabI. The goal of these studies was two-fold, to comparatively assess fabimycin, Debio-1452-NH3, and Debio-1452, and to also assess differential activity against the E. coli and A. baumannii versions of FabI. FabI from E. coli and A. baumannii were recombinantly expressed and purified, and the ability for each compound to inhibit the activity of these enzymes was evaluated using a standard FabI enzyme assay.
In vitro FabI inhibition assay. NADH (Sigma-Aldrich, Cat# N8129) and crotonoyl-CoA (Sigma-Aldrich, Cat# 28007) were both diluted into activity buffer [100 mM potassium glutamate (pH 7.8)], and working solution was dispensed into two columns of round-bottom 96-well plate (330 μL per well). Inhibitors, dissolved in DMSO at 200× final concentration, were added to each well via multichannel pipette (2.48 μL per well). After thorough mixing, this mixture was transferred to UV-transparent plate (UV-STAR half-area 96-well plate, Greiner Bio-One, Cat#675801, 100 μL per well, three technical replicates per inhibitor concentration). Plate was placed in plate-reader (SpectraMax 190, Molecular Devices) under temperature control (25° C.), and temperature was allowed to equilibrate. Fresh aliquot of enzyme from −80° C. was thawed on ice and diluted in activity buffer. Enzyme working solution was added to plate (50 μL per well, 20 nM enzyme final). After shaking for 5 s, reaction progress was monitored by absorbance at 340 nm every 15 s for 90 min. Linear portion of reaction progress curve was fit using plate-reader software (SoftMax Pro 7.0). Percent activity was calculated relative to DMSO-only and no-enzyme controls in each plate. Percent activity curves were fit to Morrison's quadratic using Graphpad Prism 6.0 to obtain apparent Ki.

[18] = tested on: two E. coli, four K. pneumoneia, and four A. baumannii strains; assay: MIC against Gram-negative clinical isolate challenge panel (ten isolates); type: cell-based
Experimental: as §3, §2

[19] = female, C57BL/6, mouse, in vivo

Compound | IMR90 % Cell Death ([1]; 30 μM) [%] | IMR90 % Cell Death ([1]; 100 μM) [%] | Hep G2 % Cell Death ([2]; 30 μM) [%] | Hep G2 % Cell Death ([2]; 100 μM) [%] | MIC E. coli ΔtolC [4] [µg/mL] | MIC S. aureus 29213 [3] [µg/mL] | MIC E. coli MG1655 [5] [µg/mL] | MIC K. pneumoniae BAA 2472 [6] [µg/mL] | MIC A. baumannii AR 0033 [7] [µg/mL] | MIC A. baumannii AR 0273 [8] [µg/mL] | MIC A. baumannii AR 0299 [9] [µg/mL] | MIC A. baumannii AR 0313 [10] [µg/mL] | MIC E. coli AR 0048 [11] [µg/mL] | MIC E. coli AR 0085 [12] [µg/mL] | MIC K. pneumoniae AR 0066 [13] [µg/mL] | MIC K. pneumoniae AR 0113 [14] [µg/mL] | MIC K. pneumoniae AR 0560 [15] [µg/mL] | further results
Cc1c(CN(C)C(=O)/C=C/c2ccc3c(c2)CCC(N)C(=O)N3)oc2ccccc12 (stereo not drawn) | 8 ± 3 | 67 ± 2 | 12 ± 5 | 58 ± 10 |  |  |  |  |  |  |  |  |  |  |  |  |  | 
Cc1c(CN(C)C(=O)/C=C/c2cnc3c(c2)CC(N)C(=O)N3)oc2ccccc12.Cl (stereo not drawn) [Debio-1452-NH3, (E)-3-(6-amino-7-oxo-5,6,7,8-tetrahydro-1,8-naphthyridin-3-yl)-N-methyl-N-((3-methylbenzofuran-2-yl)methyl)acrylamide, reference compound] | 18 ± 4 | 69 ± 5 | 29 ± 8 | 77 ± 3 | 0.062 |  |  |  |  |  |  |  |  |  |  |  |  | MIC ([3]; Staphylococcus aureus, ATCC29213, read-out: MIC S. aureus 29213): 0.031 µg/mL; MIC ([5]; Escherichia coli, MG1655): 4 µg/mL; MIC ([6]; Klebsiella pneumoniae, BAA2472, read-out: MIC K. pneumoniae BAA 2472, clinical isolate): 16 µg/mL; MIC ([7]; Acinetobacter baumannii, AR0033, read-out: MIC A. baumannii AR 0033, clinical isolate): 32 µg/mL; MIC ([8]; Acinetobacter baumannii, AR0273, read-out: MIC A. baumannii AR 0273, clinical isolate): 32 µg/mL; MIC ([9]; Acinetobacter baumannii, AR0299, read-out: MIC A. baumannii AR 0299, clinical isolate): 32 µg/mL; MIC ([10]; Acinetobacter baumannii, AR0313, read-out: MIC A. baumannii AR 0313, clinical isolate): 32 µg/mL; MIC ([11]; Escherichia coli, AR0048, read-out: MIC E. coli AR 0048, clinical isolate): 32 µg/mL; MIC ([12]; Escherichia coli, AR0085, read-out: MIC E. coli AR 0085, clinical isolate): 16 µg/mL; MIC ([13]; Klebsiella pneumoniae, AR0066, read-out: MIC K. pneumoniae AR 0066, clinical isolate): 32 µg/mL; MIC ([14]; Klebsiella pneumoniae, AR0113, read-out: MIC K. pneumoniae AR 0113, clinical isolate): 32 µg/mL; MIC ([15]; Klebsiella pneumoniae, AR0560, read-out: MIC K. pneumoniae AR 0560, clinical isolate): 32 µg/mL; well tolerated daily dosing for 5 consecutive days ([16]; daily IP, 5 consecutive days, female C57BL/6 mice): 50 mg/kg; MTD at 2 weeks [16, 19]: 50 mg/kg; MTD at 5 d [16, 19]: 50 mg/kg; Multi-day single-dose MTD ([16]; female, C57BL/6, mouse, in vivo, 5 d): 50 mg/kg, 5 d; MTD at 2 weeks ([16]; female, C57BL/6, mouse, in vivo, ip): 50 mg/kg
(R,E)-3-(7-amino-8-oxo-6,7,8,9-tetrahydro-5H-pyrido[2,3]azepin-3-yl)-N-methyl-N-((3-methylbenzofuran-2-yl)methyl)acrylamide [(R)-11] |  |  |  |  | 0.5 | 0.125 | 64 | >128 | >128 | >128 | >128 | >128 | 128 | 128 | >128 | >128 | >128 | Ki [17]: 89 ± 11 nM
Cc1c(CN(C)C(=O)/C=C/c2cnc3c(c2)CCC(N)C(=O)N3)oc2ccccc12 (racemic) [(±)-11] |  |  |  |  | 0.031 (≈ 0.0766 µM) | 0.016 (≈ 0.0396 µM) | 4 (≈ 9.89 µM) | 8 (≈ 19.8 µM) | 4 (≈ 9.89 µM) | 8 (≈ 19.8 µM) | 4 (≈ 9.89 µM) | 8 (≈ 19.8 µM) | 4 (≈ 9.89 µM) | 4 (≈ 9.89 µM) | 8 (≈ 19.8 µM) | 8 (≈ 19.8 µM) | 8 (≈ 19.8 µM) | concentration at which all strains of the clinical isolate challenge panel are inhibited [18]: ≤ 8 µg/mL
